Results as given in the kinase profiling compilation of Christmann-Franck et al. (2016).

How the values were obtained:
Assay in all cases: KINOMEscan competition binding
Settings in all cases: compound 10.0 µM
[1] = molecular target: ADCK3 (human) (UniProt Q8NI60)
[2] = molecular target: AURKC (human) (UniProt Q9UQB9)
[3] = molecular target: BRAF (human) (UniProt P15056)
[4] = molecular target: BTK (human) (UniProt Q06187)
[5] = molecular target: CDC42BPB (human) (UniProt Q9Y5S2)
[6] = molecular target: CDK2 (human) (UniProt P24941)
[7] = molecular target: CDKL5 (human) (UniProt O76039)
Sequence of CDKL5 (human) (O76039 whole entry, looked up): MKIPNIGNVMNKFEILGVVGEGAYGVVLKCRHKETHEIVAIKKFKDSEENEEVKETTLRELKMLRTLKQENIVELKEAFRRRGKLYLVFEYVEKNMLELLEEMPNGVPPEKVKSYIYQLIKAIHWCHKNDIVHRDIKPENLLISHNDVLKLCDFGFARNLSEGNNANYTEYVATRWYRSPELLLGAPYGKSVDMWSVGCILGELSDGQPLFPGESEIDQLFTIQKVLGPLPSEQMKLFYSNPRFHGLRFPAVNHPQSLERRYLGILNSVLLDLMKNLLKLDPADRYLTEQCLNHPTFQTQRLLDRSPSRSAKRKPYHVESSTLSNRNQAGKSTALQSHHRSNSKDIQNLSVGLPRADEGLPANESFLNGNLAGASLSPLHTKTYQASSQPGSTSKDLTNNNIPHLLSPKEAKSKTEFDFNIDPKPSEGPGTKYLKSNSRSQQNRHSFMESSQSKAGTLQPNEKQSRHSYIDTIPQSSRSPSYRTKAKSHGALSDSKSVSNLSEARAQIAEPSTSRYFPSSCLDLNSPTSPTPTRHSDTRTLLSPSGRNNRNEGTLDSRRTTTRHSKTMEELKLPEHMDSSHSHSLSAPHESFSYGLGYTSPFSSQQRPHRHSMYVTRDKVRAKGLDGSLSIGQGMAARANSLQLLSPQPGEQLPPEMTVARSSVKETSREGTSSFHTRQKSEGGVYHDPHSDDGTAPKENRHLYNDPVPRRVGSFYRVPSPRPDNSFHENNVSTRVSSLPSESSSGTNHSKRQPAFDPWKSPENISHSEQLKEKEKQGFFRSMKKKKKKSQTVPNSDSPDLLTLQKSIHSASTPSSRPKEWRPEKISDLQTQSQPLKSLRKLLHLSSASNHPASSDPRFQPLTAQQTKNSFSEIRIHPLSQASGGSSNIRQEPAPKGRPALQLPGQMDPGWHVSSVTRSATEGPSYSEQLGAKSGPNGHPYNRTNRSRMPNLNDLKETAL

[8] = molecular target: CIT (human) (UniProt O14578)
[9] = molecular target: CLK2 (human) (UniProt P49760)
[10] = molecular target: CSNK1G3 (human) (UniProt Q9Y6M4)
[11] = molecular target: DDR2 (human) (UniProt Q16832)
[12] = system: FLT3 (human), P36888 [D835H]
[13] = system: FLT3 (human), P36888 [N841I]
[14] = molecular target: GAK (human) (UniProt O14976)
[15] = molecular target: ICK (human) (UniProt Q9UPZ9)
[16] = molecular target: IGF1R (human) (UniProt P08069)
[17] = molecular target: IKBKB (human) (UniProt O14920)
Sequence of IKBKB (human) (O14920 whole entry, looked up): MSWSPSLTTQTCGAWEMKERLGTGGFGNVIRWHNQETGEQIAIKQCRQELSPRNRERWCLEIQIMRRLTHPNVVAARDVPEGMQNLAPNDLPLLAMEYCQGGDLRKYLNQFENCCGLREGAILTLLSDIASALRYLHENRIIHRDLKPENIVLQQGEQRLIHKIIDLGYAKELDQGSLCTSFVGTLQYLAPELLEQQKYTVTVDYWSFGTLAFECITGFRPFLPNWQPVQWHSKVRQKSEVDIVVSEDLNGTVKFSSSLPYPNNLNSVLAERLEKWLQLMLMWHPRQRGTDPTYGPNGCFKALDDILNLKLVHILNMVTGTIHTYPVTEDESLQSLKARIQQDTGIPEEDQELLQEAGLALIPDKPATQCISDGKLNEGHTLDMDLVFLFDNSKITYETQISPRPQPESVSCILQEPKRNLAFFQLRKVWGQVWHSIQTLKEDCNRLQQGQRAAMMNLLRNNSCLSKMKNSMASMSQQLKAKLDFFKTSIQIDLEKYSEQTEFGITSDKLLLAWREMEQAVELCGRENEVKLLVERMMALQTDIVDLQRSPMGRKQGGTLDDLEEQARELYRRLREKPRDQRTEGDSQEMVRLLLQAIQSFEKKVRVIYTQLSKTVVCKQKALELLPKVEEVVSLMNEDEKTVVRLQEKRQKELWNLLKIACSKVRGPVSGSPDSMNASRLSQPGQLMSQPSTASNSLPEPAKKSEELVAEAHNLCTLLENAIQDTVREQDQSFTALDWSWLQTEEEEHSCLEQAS

[18] = molecular target: ITK (human) (UniProt Q08881)
[19] = molecular target: JAK1 JH2 pseudokinase (human) (UniProt P23458)
[20] = system: KIT (human), P10721 [D816V]
[21] = molecular target: LTK (human) (UniProt P29376)
[22] = molecular target: MAP3K13 (human) (UniProt O43283)
[23] = molecular target: MAP3K4 (human) (UniProt Q9Y6R4)
[24] = molecular target: MAP3K5 (human) (UniProt Q99683)
[25] = molecular target: MAST1 (human) (UniProt Q9Y2H9)
[26] = molecular target: MYLK (human) (UniProt Q15746)
[27] = molecular target: NEK5 (human) (UniProt Q6P3R8)
Sequence of NEK5 (human) (Q6P3R8 whole entry, looked up): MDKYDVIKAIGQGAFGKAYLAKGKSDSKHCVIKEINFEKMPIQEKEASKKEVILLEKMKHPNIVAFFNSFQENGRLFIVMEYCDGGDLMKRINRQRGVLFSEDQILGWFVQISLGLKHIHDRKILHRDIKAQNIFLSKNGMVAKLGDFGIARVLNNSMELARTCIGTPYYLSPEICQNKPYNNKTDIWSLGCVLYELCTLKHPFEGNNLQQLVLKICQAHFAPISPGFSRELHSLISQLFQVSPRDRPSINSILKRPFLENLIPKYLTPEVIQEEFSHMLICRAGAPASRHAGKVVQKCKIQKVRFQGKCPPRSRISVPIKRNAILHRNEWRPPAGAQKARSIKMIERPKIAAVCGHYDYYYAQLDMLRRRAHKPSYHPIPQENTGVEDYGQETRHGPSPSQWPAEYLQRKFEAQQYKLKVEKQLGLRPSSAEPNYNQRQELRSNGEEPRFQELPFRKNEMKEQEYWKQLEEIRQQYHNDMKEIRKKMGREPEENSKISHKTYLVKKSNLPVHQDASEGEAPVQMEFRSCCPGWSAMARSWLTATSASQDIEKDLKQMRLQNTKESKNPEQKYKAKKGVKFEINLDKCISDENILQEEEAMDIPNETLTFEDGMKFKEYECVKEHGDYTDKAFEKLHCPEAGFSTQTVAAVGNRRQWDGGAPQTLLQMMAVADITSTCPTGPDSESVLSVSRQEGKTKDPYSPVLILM

[28] = molecular target: NIM1 (human) (UniProt Q8IY84)
Sequence of NIM1 (human) (Q8IY84 whole entry, looked up): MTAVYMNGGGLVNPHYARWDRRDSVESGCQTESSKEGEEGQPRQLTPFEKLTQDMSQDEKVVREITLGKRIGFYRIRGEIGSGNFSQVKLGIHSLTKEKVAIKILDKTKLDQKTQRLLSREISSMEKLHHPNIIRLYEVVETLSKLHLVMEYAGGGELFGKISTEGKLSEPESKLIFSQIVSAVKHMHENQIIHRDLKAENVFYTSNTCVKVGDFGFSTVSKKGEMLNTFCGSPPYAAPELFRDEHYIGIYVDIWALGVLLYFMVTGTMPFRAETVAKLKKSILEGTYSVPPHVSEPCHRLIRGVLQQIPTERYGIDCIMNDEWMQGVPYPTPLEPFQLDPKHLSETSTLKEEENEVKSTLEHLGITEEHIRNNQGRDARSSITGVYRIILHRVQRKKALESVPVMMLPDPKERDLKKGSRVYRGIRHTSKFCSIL

[29] = molecular target: PAK6 (human) (UniProt Q9NQU5)
[30] = molecular target: PRKG1 (human) (UniProt Q13976)
[31] = molecular target: RIOK1 (human) (UniProt Q9BRS2)
Sequence of RIOK1 (human) (Q9BRS2 whole entry, looked up): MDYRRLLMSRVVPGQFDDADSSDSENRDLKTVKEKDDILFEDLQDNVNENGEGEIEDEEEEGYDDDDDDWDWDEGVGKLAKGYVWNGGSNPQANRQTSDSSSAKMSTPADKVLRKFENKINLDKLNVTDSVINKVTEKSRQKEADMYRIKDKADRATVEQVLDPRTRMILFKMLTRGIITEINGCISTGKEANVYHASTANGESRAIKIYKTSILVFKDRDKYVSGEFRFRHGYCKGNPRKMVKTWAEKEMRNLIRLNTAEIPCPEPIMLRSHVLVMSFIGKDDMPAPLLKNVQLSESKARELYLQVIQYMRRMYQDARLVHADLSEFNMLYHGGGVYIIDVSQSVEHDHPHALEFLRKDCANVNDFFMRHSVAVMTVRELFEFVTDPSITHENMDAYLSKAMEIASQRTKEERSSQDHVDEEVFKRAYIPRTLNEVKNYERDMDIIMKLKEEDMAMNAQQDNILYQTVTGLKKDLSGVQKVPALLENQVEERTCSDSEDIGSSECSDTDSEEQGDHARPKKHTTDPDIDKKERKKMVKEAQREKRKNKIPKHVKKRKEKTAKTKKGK

[32] = molecular target: RIPK2 (human) (UniProt O43353)
Sequence of RIPK2 (human) (O43353 whole entry, looked up): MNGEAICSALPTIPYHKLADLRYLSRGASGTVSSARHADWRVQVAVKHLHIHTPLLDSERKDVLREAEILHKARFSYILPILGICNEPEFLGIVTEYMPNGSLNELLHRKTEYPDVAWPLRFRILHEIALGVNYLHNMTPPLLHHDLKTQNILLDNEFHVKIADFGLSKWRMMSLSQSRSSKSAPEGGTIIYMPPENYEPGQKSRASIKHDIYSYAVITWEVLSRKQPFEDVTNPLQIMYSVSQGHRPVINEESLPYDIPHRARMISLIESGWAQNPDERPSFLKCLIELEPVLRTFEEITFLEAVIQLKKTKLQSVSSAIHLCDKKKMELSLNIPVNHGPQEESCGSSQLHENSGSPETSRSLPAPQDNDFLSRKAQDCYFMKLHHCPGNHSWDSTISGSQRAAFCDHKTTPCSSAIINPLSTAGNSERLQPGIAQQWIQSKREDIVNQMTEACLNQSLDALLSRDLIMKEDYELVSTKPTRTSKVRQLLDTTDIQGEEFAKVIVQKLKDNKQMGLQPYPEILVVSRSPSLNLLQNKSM

[33] = molecular target: SIK3 (human) (UniProt Q9Y2K2)
[34] = molecular target: STK17A (human) (UniProt Q9UEE5)
[35] = molecular target: STK3 (human) (UniProt Q13188)
Sequence of STK3 (human) (Q13188 whole entry, looked up): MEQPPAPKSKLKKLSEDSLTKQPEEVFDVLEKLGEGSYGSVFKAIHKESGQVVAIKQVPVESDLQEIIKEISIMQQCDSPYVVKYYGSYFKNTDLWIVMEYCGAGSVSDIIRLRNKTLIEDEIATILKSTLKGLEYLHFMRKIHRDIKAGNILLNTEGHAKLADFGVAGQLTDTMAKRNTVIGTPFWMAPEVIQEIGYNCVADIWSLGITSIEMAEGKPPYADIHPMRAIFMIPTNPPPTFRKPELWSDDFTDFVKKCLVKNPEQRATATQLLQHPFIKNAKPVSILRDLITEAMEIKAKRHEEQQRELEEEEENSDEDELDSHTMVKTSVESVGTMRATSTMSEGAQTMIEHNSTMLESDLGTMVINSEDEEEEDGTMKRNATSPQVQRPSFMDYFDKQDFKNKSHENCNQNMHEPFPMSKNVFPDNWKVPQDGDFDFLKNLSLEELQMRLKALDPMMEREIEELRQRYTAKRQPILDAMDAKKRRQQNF

[36] = molecular target: STK35 (human) (UniProt Q8TDR2)
[37] = molecular target: STK38 (human) (UniProt Q15208)
[38] = molecular target: TESK1 (human) (UniProt Q15569)
[39] = molecular target: TYK2 JH1 catalytic (human) (UniProt P29597)
[40] = molecular target: ULK3 (human) (UniProt Q6PHR2)
[41] = molecular target: WEE2 (human) (UniProt P0C1S8)
Sequence of WEE2 (human) (P0C1S8 whole entry, looked up): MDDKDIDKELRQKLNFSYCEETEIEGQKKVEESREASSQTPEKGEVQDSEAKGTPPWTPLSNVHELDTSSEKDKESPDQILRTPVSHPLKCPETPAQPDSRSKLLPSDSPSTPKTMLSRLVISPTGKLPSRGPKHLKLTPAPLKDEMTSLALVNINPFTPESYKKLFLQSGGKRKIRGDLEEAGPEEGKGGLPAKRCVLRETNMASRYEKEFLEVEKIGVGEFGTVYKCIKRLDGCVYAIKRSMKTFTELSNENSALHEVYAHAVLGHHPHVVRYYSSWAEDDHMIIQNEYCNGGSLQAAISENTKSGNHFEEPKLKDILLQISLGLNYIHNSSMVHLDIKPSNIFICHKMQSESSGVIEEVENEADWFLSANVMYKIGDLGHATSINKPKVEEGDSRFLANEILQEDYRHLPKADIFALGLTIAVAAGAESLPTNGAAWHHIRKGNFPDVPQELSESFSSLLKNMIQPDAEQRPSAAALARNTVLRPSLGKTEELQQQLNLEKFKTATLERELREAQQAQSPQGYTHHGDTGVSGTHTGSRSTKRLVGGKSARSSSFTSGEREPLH

[42] = molecular target: YSK4 (human) (UniProt Q56UN5)

kinase still bound, per cent of control [1]: 100% | kinase still bound, per cent of control [2]: 92% | kinase still bound, per cent of control [3]: 50% | kinase still bound, per cent of control [4]: 100% | kinase still bound, per cent of control [5]: 100% | kinase still bound, per cent of control [6]: 54% | kinase still bound, per cent of control [7]: 100% | kinase still bound, per cent of control [8]: 100% | kinase still bound, per cent of control [9]: 40% | kinase still bound, per cent of control [10]: 56% | kinase still bound, per cent of control [11]: 100% | kinase still bound, per cent of control [12]: 74% | kinase still bound, per cent of control [13]: 75% | kinase still bound, per cent of control [14]: 79% | kinase still bound, per cent of control [15]: 39% | kinase still bound, per cent of control [16]: 100% | kinase still bound, per cent of control [17]: 80% | kinase still bound, per cent of control [18]: 100% | kinase still bound, per cent of control [19]: 87% | kinase still bound, per cent of control [20]: 100% | kinase still bound, per cent of control [21]: 100% | kinase still bound, per cent of control [22]: 80% | kinase still bound, per cent of control [23]: 100% | kinase still bound, per cent of control [24]: 100% | kinase still bound, per cent of control [25]: 79% | kinase still bound, per cent of control [26]: 59% | kinase still bound, per cent of control [27]: 93% | kinase still bound, per cent of control [28]: 100% | kinase still bound, per cent of control [29]: 100% | kinase still bound, per cent of control [30]: 100% | kinase still bound, per cent of control [31]: 100% | kinase still bound, per cent of control [32]: 100% | kinase still bound, per cent of control [33]: 84% | kinase still bound, per cent of control [34]: 85% | kinase still bound, per cent of control [35]: 100% | kinase still bound, per cent of control [36]: 100% | kinase still bound, per cent of control [37]: 100% | kinase still bound, per cent of control [38]: 100% | kinase still bound, per cent of control [39]: 99% | kinase still bound, per cent of control [40]: 100% | kinase still bound, per cent of control [41]: 100% | kinase still bound, per cent of control [42]: 30%
Compound: Cc1cnc(-c2cnc(NCCNc3ccc(C#N)cn3)nc2-c2ccc(Cl)cc2Cl)[nH]1
